The results in this text go back to US20140073694A1, “CYSTAMINE ANALOGUES FOR THE TREATMENT OF PARKINSON'S DISEASE” (UNIVERSITE LAVAL, priority 2011, published 2014).

Entries after “also recorded” stand apart in the source; their conditions may differ.

The subject of this assay is MPTP-treated mice. The assay can be described thus: Subacute MPTP mouse model of Parkinson's disease: nigral DAergic markers (TH, Nurr1, DAT). Type of assay: in vivo, C57BL/6 mice. As to the method:
Young adult (9-week old, 25 grams) male C57BL/6 mice were purchased from Charles River Laboratories (Montréal, QC, Canada). Animals were housed 4 per cage under standard conditions with free access to food and water, randomized and handled under the same conditions by one investigator. All experiments were performed in accordance with the Canadian Council on Animal Care and were approved by the Institutional Committee of the Centre Hospitalier de l'Université Laval (CHUL, Québec, Canada). Throughout the experiment, the health status of all mice included in the study was closely monitored for weight loss or other signs of health-related issues. All efforts were made to minimize animal pain and discomfort.
Mice received 7 i.p. injections, twice on the first 2 days of the experimental protocol at an interval of 12 hrs and once a day on 3 subsequent days, of either saline 0.9% or MPTP-HCl (20 mg/kg free base; Sigma, St. Louis, Mo.) dissolved in saline 0.9% prepared fresh (Tremblay et al., 2006; Gibrat et al., 2007; Gibrat et al., 2010).
Beneficial effects of cystamine in parkinsonian mice (cystamine dihydrochloride, Sigma, St. Louis, Mo.) were evaluated with a dose of 10 mg/kg dissolved in sterile saline 0.9% and prepared fresh for daily i.p. injection 1 hr before MPTP administration. The choice of dose and regime of administration was based on our previous findings (Tremblay et al., 2006; Gibrat et al., 2010). The first injection of cystamine was administered either 1) 2 days before the start of MPTP injections (pre-treatment) or 2) 24 hours after the last MPTP dose (post-treatment), and the treatment continued daily for 14 days post injury.
The effects of cystamine on the MPTP toxicity were studied in the following experimental groups: Group I, Saline+Saline; Group II, Saline+Cystamine post-treatment; Group III; Saline+Cystamine pre-treatment; Group IV, MPTP+Saline; Group V, MPTP+Cystamine post-treatment, Group VI, MPTP+Cystamine pre-treatment. In total, 96 mice (n=16 per group) were utilized, monitored daily for weight variation, and ultimately sacrificed by perfusion 24 hrs after the last cystamine (or vehicle) injection.
Experiment 1. All mice were subjected to intracardiac perfusion with RNAse free 0.1 M phosphate-buffered saline (PBS). After intracardiac perfusion, brains were collected and the two hemispheres were separated. The left hemisphere was post-fixed in 4% paraformaldehyde (PFA) for 48 hrs and transferred to 20% sucrose in 0.1 M PBS for cryoprotection. Coronal brain sections of 25 μm thickness were cut onto a freezing microtome (Leica Microsystems, Montreal, QC) and serially collected in anti-freeze solution (monophosphate sodium monobasic 0.2 M, monophosphate sodium dibasic 0.2 M, ethylene glycol 30%, glycerol 20%) and kept at −20° C. until use. Sections from the left hemisphere were utilized for additional immunohistochemistry and in situ hybridization protocols. The right hemispheres were snap-frozen in 2-methyl-butane and then stored at −80° C. until cryostat dissection for HPLC and western-blot (WB) analyses.
For assessment of DAergic neuronal-loss, immunohistochemistry against the enzyme TH was performed as previously described (Tremblay et al., 2006; Gibrat et al., 2009). Briefly, free-floating sections, after several washes and blocking preincubation, were incubated overnight at 4° C. with a rabbit anti-TH (Pel-Freez, Rogers, Ark.; 1:5000). Sections were then incubated for 1 hr at room temperature (RT) in a solution containing biotinylated goat anti-rabbit IgG (Vector Laboratories, Burlington, ON; 1:1500) and subsequently placed in a solution containing avidin-biotin peroxidase complex (ABC Elite kit; Vector Laboratories, Burlington, ON) for 1 hr at RT. Finally, the reaction was developed in 3,3′ diaminobenzidine tetrahydrochloride (DAB) solution (Sigma, St. Louis, Mo.) and 0.1% of 30% hydrogen peroxide (Sigma, St. Louis, Mo.) at RT. […]

Setting [1] is: post-treatment: 10 mg/kg i.p. daily started 24 h after last MPTP dose, 14 days.
[2] abbreviates: pre-treatment: 10 mg/kg i.p. daily started 2 days before MPTP.

Turning to `NCCSSCCN` [cystamine, Cystamine], under setting [1], the “DAT mRNA / DAT mRNA expressing cells in the SNpc” value is reported as “significant recovery; also recorded: higher level; also recorded: comparable number of DAT-positive cells as saline treated animals”; the “Nurr1 mRNA levels in the SNpc” value is listed as “significant recovery; also recorded: normal levels of Nurr1 mRNA; also recorded: higher level of Nurr1”; the “TH-positive and Nissl-positive neurons in the SNpc, stereological count” value is “significant recovery of the number of nigral DAergic neurons; also recorded: significantly greater number of TH-positive and Nissl-positive neurons”. Under setting [2], the “Nurr1 mRNA levels in the SNpc” value is “normalization of Nurr1 mRNA levels” and the “SNpc neurons expressing DAT” value is “normalization; also recorded: comparable number of DAT-positive cells as saline treated animals”. The “TH-immunoreactive (TH-positive) neurons in the SNpc, stereological count” value (pre-treatment: 10 mg/kg i.p. daily started 2 days before MPTP, continued 14 days post injury) was “increase density of TH-immunoreactive cells in the SNpc”.
